Like-named read-outs stand apart in the source and are kept apart here. No end group written: not given here.
Columns and labels:
MRSA ATCC 33591-lux = experiment: AAMP assay and checkerboard synergy; format: cell-based, Staphylococcus aureus; settings: for MIC: Staphylococcus aureus, 24 h, read-out: MIC, single antimicrobial
Method: (§1) Antimicrobial activity was measured using the AAMP assay (Wiegand et al., 2008, Nat. Protoc., Vol. 3(2), p 163-175).
(§2) Synergy testing was done with a microtiter plate checkerboard assay as previously described (Orhan et al., 2005, J. Clin. Microbiol., Vol. 43(1), p 140-143). Briefly, equal amounts of antimicrobial A were applied on microtiter plate 1 in wells A1-H1 and then diluted two-fold to wells 2-12. Similarly, equal amounts of antimicrobial B were applied on microtiter plate 2 in wells A1-A12 and diluted two-fold in wells B-H. Volumes of 50 μl of antimicrobial A from each well of microtiter plate 1 were transferred into microtiter plate 3, except for wells H1-H12. Similarly, the same volumes were transferred from microtiter plate 2 into plate 3, except for wells A1-A8. A 100 μl volume of 25 times diluted ON bacterial culture of MRSA was transferred into each well of plate 3. A 50 μl volume of pure broth was added into each well in lines H1-H12 and A1-A8 which were used to estimate MIC values of pure substances (blank).
(§3) Three-component synergy was assessed by mixing the three components (100 μg of PenG, 50 μg of GarKS and 2.5 μg of MP1) into one well of a microtiter plate, compared with activity of individual antimicrobials on the same plate. The fractional inhibition concentration (FIC) which was used to define synergy was calculated as set forth in Example 1.

MRSA USA-300 = experiment: AAMP assay and checkerboard synergy; format: cell-based, Staphylococcus aureus; settings: for MIC: Staphylococcus aureus, 24 h, read-out: MIC, single antimicrobial
Method: as §1, §2, §3

MRSA 43484 = experiment: AAMP assay and checkerboard synergy; format: cell-based, Staphylococcus aureus; settings: for MIC: Staphylococcus aureus, 24 h, read-out: MIC, single antimicrobial
Method: as §1, §2, §3

[1] = test system: three MRSA strains (ATCC33591-lux, USA-300 and MRSA 43484); experiment: AAMP assay and checkerboard synergy, summary; format: cell-based, Staphylococcus aureus; settings: for MIC: Staphylococcus aureus, 24 h; for synergy with GarKS: checkerboard assay
Method: as §2, with “Briefly,” for “Synergy testing was done with a microtiter plate checkerboard assay as previously described (Orhan et al., 2005, J. Clin. Microbiol., Vol. 43(1), p 140-143). Briefly,”, “A 100 μl volume of 25 times diluted ON bacterial culture of MRSA was transferred into each well of plate 3.” left out
Three-component synergy was assessed by mixing the three components (100 μg of PenG, 50 μg of GarKS and 2.5 μg of MP1) into one well of a microtiter plate, compared with activity of individual antimicrobials on the same plate.

S. aureus LMG3265 = experiment: AAMP assay (MIC), single components and formulation mixture; format: cell-based, Staphylococcus aureus; settings: Staphylococcus aureus, LMG3265, 24 h; read-out: MIC, single component
Method: as §1, §3

S. aureus LMG3242 = experiment: as above; format: cell-based, Staphylococcus aureus
Method: as §1, §3

S. aureus LMG3271 = experiment: as above; format: cell-based, Staphylococcus aureus; settings: Staphylococcus aureus, LMG3271, 24 h; read-out: MIC, single component
Method: as §1, §3

S. aureus LMG3322 = experiment: as above; format: cell-based, Staphylococcus aureus; settings: Staphylococcus aureus, LMG3322, 24 h; read-out: MIC, single component
Method: as §1, §3

S. aureus LMG3258 = experiment: as above; format: cell-based, Staphylococcus aureus; settings: Staphylococcus aureus, LMG3258, 24 h; read-out: MIC, single component
Method: as §1, §3

S. aureus LMG3263 = experiment: as above; format: cell-based, Staphylococcus aureus
Method: as §1, §3

S. aureus LMG3264 = experiment: as above; format: cell-based, Staphylococcus aureus
Method: as §1, §3

S. aureus LMG3307 = experiment: as above; format: cell-based, Staphylococcus aureus; settings: Staphylococcus aureus, LMG3307, 24 h; read-out: MIC, single component
Method: as §1, §3

S. aureus LMG3026 = experiment: as above; format: cell-based, Staphylococcus aureus; settings: Staphylococcus aureus, LMG3026, 24 h; read-out: MIC, single component
Method: as §1, §3

S. aureus LMG3328 = experiment: as above; format: cell-based, Staphylococcus aureus; settings: Staphylococcus aureus, LMG3328, 24 h; read-out: MIC, single component
Method: as §1, §3

S. aureus LMG3314 = experiment: as above; format: cell-based, Staphylococcus aureus; settings: Staphylococcus aureus, LMG3314, 24 h; read-out: MIC, single component
Method: as §1, §3

S. aureus LMG3266 = experiment: as above; format: cell-based, Staphylococcus aureus
Method: as §1, §3

S. aureus LMG3255 = experiment: as above; format: cell-based, Staphylococcus aureus
Method: as §1, §3

[2] = test system: S. pseudintermedius MRSP 45; experiment: microbe, parasite or virus in culture; format: cell-based, Staphylococcus pseudintermedius; settings: Staphylococcus pseudintermedius, read-out: MIC, single component
Method: as §1, §2
(§4) Antimicrobial activity was measured using the AAMP assay as described in Example 2.
(§5) Synergy testing was performed as in Example 2.

MRSA ATCC 33591 = experiment: microbe, parasite or virus in culture; format: cell-based, Staphylococcus aureus; settings: for MIC: Staphylococcus aureus, 24 h, read-out: MIC, single antimicrobial
Method: as §1, §2, §4, §5

[3] = test system: Methicillin-Resistant Staphylococcus aureus; format: in vivo, mice; settings: repeat on larger groups
Method: The experiment was performed essentially as set out in Example 2, except that the following regimes as described below, were used.
50-70 μl of cream was applied per wound.
Treatment was daily for 4 days.
The rifampicin/MP1 experiment was repeated on a larger group of mice in each category (8 mice for each of rifampicin, MP1, rifampicin+MP1, 8 mice with APO base cream 30% as used for rifampicin and MP1, 7 mice untreated). Seven mice were also treated with fucidin cream (2% fusidic acid in a cream base) as a positive control.

E. faecium LMGT 3104 = experiment: microbe, parasite or virus in culture; format: cell-based, Enterococcus faecium
Method: as §1, §2, §4, §5

[4] = Staphylococcus aureus, LMG3242, 24 h; read-out: MIC, single component
[5] = Staphylococcus aureus, LMG3263, 24 h; read-out: MIC, single component
[6] = Staphylococcus aureus, LMG3264, 24 h; read-out: MIC, single component
[7] = Staphylococcus aureus, LMG3266, 24 h; read-out: MIC, single component
[8] = Staphylococcus aureus, LMG3255, 24 h; read-out: MIC, single component

Molecule	MIC of the antimicrobial in comb. with GarKS (MRSA ATCC 33591-lux; MRSA ATCC 33591-lux)	MIC of the antimicrobial in comb. with GarKS (MRSA USA-300; MRSA USA-300)	MIC (MRSA USA-300; MRSA) [µg/mL]	MIC of the antimicrobial in comb. with GarKS (MRSA 43484; MRSA 43484)	MIC (MRSA 43484; MRSA 43484) [µg/mL]	MIC of the antimicrobial in comb. with GarKS ([1]; All three strains) [µg/mL]	synergy with GarKS [1]	MIC (S. aureus LMG3265) [µg/mL]	MIC (S. aureus LMG3242; [4]) [µg/mL]	MIC (S. aureus LMG3271) [µg/mL]	MIC (S. aureus LMG3322) [µg/mL]	MIC (S. aureus LMG3258) [µg/mL]	MIC (S. aureus LMG3263; [5]) [µg/mL]	MIC (S. aureus LMG3264; [6]) [µg/mL]	MIC (S. aureus LMG3307) [µg/mL]	MIC (S. aureus LMG3026) [µg/mL]	MIC (S. aureus LMG3328) [µg/mL]	MIC (S. aureus LMG3314) [µg/mL]	MIC (S. aureus LMG3266; [7]) [µg/mL]	MIC (S. aureus LMG3255; [8]) [µg/mL]	also measured
O=C(N[C@H](CO)[C@H](O)c1ccc([N+](=O)[O-])cc1)C(Cl)Cl [Cam, Chloramphenicol]	32/32 μg/ml	64 µg/mL	125	64 µg/mL	16	32 to 64	no synergy or only additive effects	32	8	16	8	16	32	16	8	8	8	8	32	16	MIC (MRSA ATCC 33591-lux): 125 µg/mL; MIC ([1]; read-out: MIC, single antimicrobial, All three strains): 16 to 125 µg/mL; MIC ([2]; MRSP45, MRSP 45, 24 h, Table 8): 62 µg/mL; MIC of MP1 in comb. with the labelled antimicrobial (MRSA ATCC 33591): 0.08 µg/mL; MIC of the labelled antimicrobial in comb. with MP1 (MRSA ATCC 33591): 8 µg/mL; MIC (MRSA ATCC 33591): 62 µg/mL
NC[C@H]1O[C@H](O[C@H]2[C@H](O)[C@@H](O[C@H]3O[C@H](CO)[C@@H](O)[C@H](N)[C@H]3O)[C@H](N)C[C@@H]2N)[C@H](O)[C@@H](O)[C@@H]1O [Kan, Kanamycin]	–	32/32 μg/ml	> 125	32/32 μg/ml	–	–	–	64	–	64	64	125	–	–	64	16	32	64	–	–	MIC (MRSA ATCC 33591-lux; MRSA ATCC 33591-lux): > 125 µg/mL; MIC (MRSA 43484; MRSA): > 125 µg/mL; MIC, single antimicrobial ([1]; All three strains): >125 µg/mL; MIC ([1]; All three strains, read-out: MIC, single antimicrobial): > 125 µg/mL; MIC (S. aureus LMG3242; Staphylococcus aureus, LMG3242, 24 h, read-out: MIC, single component): > 125 µg/mL; MIC (S. aureus LMG3263; Staphylococcus aureus, LMG3263, 24 h, read-out: MIC, single component): > 125 µg/mL; MIC (S. aureus LMG3264; Staphylococcus aureus, LMG3264, 24 h, read-out: MIC, single component): > 125 µg/mL; MIC (S. aureus LMG3266; Staphylococcus aureus, LMG3266, 24 h, read-out: MIC, single component): > 125 µg/mL; MIC (S. aureus LMG3255; Staphylococcus aureus, LMG3255, 24 h, read-out: MIC, single component): > 125 µg/mL; MIC ([2]; MRSP45, 24 h): > 1250 µg/mL
CO[C@H]1/C=C/O[C@@]2(C)Oc3c(C)c(O)c4c(O)c(c(/C=N/N5CCN(C)CC5)c(O)c4c3C2=O)NC(=O)/C(C)=C\C=C\[C@H](C)[C@H](O)[C@@H](C)[C@@H](O)[C@@H](C)[C@H](OC(C)=O)[C@@H]1C [Rifampicin]	–	–	–	–	–	–	–	–	–	–	–	–	–	–	–	–	–	–	–	–	MIC of MP1 in comb. with the labelled antimicrobial (MRSA ATCC 33591): 0.08 µg/mL; MIC of the labelled antimicrobial in comb. with MP1 (MRSA ATCC 33591): 1.5 µg/mL; MIC (MRSA ATCC 33591): > 100 µg/mL; duration of the antimicrobial effect [3]: less than 48 hours
[H]/N=C(/N)N[C@H]1[C@H](O)[C@@H](O)[C@H](O[C@@H]2O[C@@H](C)[C@](O)(C=O)[C@H]2O[C@@H]2O[C@@H](CO)[C@H](O)[C@@H](O)[C@@H]2NC)[C@@H](N/C(N)=N\[H])[C@@H]1O [Str, Streptomycin]	32 µg/mL	32 µg/mL	–	32 µg/mL	62	32	moderate synergy with GarKS only against two MRSA out of three	31	250	125	62	62	31	> 250	62	31	62	62	> 125	125	MIC, single antimicrobial (MRSA ATCC 33591-lux; MRSA ATCC 33591-lux): >2500 µg/mL; MIC (MRSA ATCC 33591-lux; MRSA ATCC 33591-lux): > 2500 µg/mL; MIC (MRSA USA-300; MRSA USA-300): 62 µg/mL; MIC ([2]; MRSP45, MRSP 45, 24 h, Table 8): > 2500 µg/mL
MKFKFNPTGTIVKKLTQYEIAWFKNKHGYYPWEIPRC [EntK1]	–	–	–	–	–	–	–	–	–	–	–	–	–	–	–	–	–	–	–	–	MIC of MP1 in comb. with the labelled antimicrobial (E. faecium LMGT 3104): 0.02 µg/mL; MIC of the labelled antimicrobial in comb. with MP1 (E. faecium LMGT 3104): 0.4 µg/mL; MIC, single antimicrobial (E. faecium LMGT 3104): >250 µg/mL
